Assay results: the supplement of paper PMC10307832

What was measured:
Assay in all cases: relative viability (nuclei count vs DMSO), 5 days (fraction); higher = more cells survive
[1] = compound: CC(C)=CC[C@@H](O)C1=CC(=O)c2c(O)ccc(O)c2C1=O [Shikonin] + C[C@]1(O)C[C@@H](c2nc(-c3ccc4ccc(-c5ccccc5)nc4c3)c3c(N)nccn32)C1 [Linsitinib] (partner 1 µM)
Summary of the method: (§1)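 Cells from lung cancer lines were seeded into 1536-well plates and, one day later, dosed by pin tool. Treatments were either a single drug or a fixed dose of an anchor drug with five library-drug doses (not always all listed) in √10 steps. After 5 days, nuclei were stained in a one-step fixation (final 0.05% Triton X-100, 1% formaldehyde, 1 ug/ml Hoechst) and counted on 4× images, and relative viability is the treated-to-vehicle nuclei ratio, as the median of duplicate plates.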

[2] = compound: CC(C)=CC[C@@H](O)C1=CC(=O)c2c(O)ccc(O)c2C1=O [Shikonin] + COc1cccc2cc(-c3nc([C@H]4CC[C@H](C(=O)O)CC4)n4ncnc(N)c34)[nH]c12 [OSI-027] (partner 0.5 µM)
Summary of the method: as §1

[3] = compound: CC(C)=CC[C@@H](O)C1=CC(=O)c2c(O)ccc(O)c2C1=O [Shikonin] + CS(=O)(=O)N1CCN(Cc2cc3nc(-c4cccc5[nH]ncc45)nc(N4CCOCC4)c3s2)CC1 [Pictilisib] (partner 1 µM)
Summary of the method: as §1

[4] = compound: CC(C)=CC[C@@H](O)C1=CC(=O)c2c(O)ccc(O)c2C1=O [Shikonin] + C[C@@H](Oc1cc(-c2cnn(C3CCNCC3)c2)cnc1N)c1c(Cl)ccc(F)c1Cl [Crizotinib] (partner 1 µM)
Summary of the method: as §1

[5] = compound: CC(C)=CC[C@@H](O)C1=CC(=O)c2c(O)ccc(O)c2C1=O [Shikonin] + Cc1cc(Nc2cc(N3CCN(C)CC3)nc(Sc3ccc(NC(=O)C4CC4)cc3)n2)n[nH]1 [Tozasertib] (partner 0.1 µM)
Summary of the method: as §1

| Cell Line | relative viability ([1]; first compound 0.01 µM) | relative viability ([1]; first compound 0.1 µM) | relative viability ([1]; first compound 0.3162 µM) | relative viability ([1]; first compound 1 µM) | relative viability ([2]; first compound 0.01 µM) | relative viability ([2]; first compound 0.1 µM) | relative viability ([2]; first compound 0.3162 µM) | relative viability ([2]; first compound 1 µM) | relative viability ([3]; first compound 0.01 µM) | relative viability ([3]; first compound 0.1 µM) | relative viability ([3]; first compound 0.3162 µM) | relative viability ([3]; first compound 1 µM) | relative viability ([4]; first compound 0.01 µM) | relative viability ([4]; first compound 0.1 µM) | relative viability ([4]; first compound 0.3162 µM) | relative viability ([4]; first compound 1 µM) | relative viability ([5]; first compound 0.01 µM) | relative viability ([5]; first compound 0.1 µM) | relative viability ([5]; first compound 0.3162 µM) | relative viability ([5]; first compound 1 µM) |
| --- | --- | --- | --- | --- | --- | --- | --- | --- | --- | --- | --- | --- | --- | --- | --- | --- | --- | --- | --- | --- |
| NCI-H2228 | 0.629 | 0.738 | 0.7 | 0.626 | 0.698 | 0.67 | 0.615 | 0.639 | 0.344 | 0.438 | 0.465 | 0.252 | 0.448 | 0.532 | 0.414 | 0.421 | 0.177 | 0.273 | 0.234 | 0.212 |
| NCI-H2347 | 0.976 | 0.987 | 1.07 | 0.977 | 0.444 | 0.425 | 0.391 | 0.398 | 0.701 | 0.764 | 0.582 | 0.573 | 0.69 | 0.0168 | 0.795 | 0.715 | 0.546 | 0.504 | 0.594 | 0.558 |
| NCI-H2405 | 0.903 | 0.982 | 1.01 | 0.914 | 0.644 | 0.661 | 0.67 | 0.658 | 0.442 | 0.401 | 0.553 | 0.474 | 0.854 | 0.819 | 0.935 | 0.852 | 0.768 | 0.802 | 0.779 | 0.687 |
| NCI-H3122 | 1.03 | 1.07 | 1.09 | 1.03 | 1.07 | 1.27 | 1.03 | 1.06 | 0.638 | 0.643 | 0.607 | 0.494 | 0.288 | 0.271 | 0.278 | 0.248 | 0.359 | 0.431 | 0.462 | 0.51 |
| PC-3 [JPC-3] | 0.923 | 1.07 | 0.951 | 1.03 | 0.851 | 0.746 | 0.759 | 0.751 | 0.69 | 0.84 | 0.759 | 0.788 | 1.03 | 1.14 | 1.03 | 0.986 | 0.883 | 0.984 | 1.01 | 0.94 |
| PC-14 | 0.978 | 0.997 | 1.12 | 0.983 | 0.921 | 0.556 | 1.06 | 0.9 | 0.817 |  | 0.641 | 0.68 | 0.984 | 1.02 | 0.841 | 1.03 | 0.619 | 0.638 | 0.743 | 0.652 |
| RERF-LC-KJ | 0.985 | 0.896 | 0.867 | 0.953 | 0.513 | 0.534 | 0.632 | 0.644 | 0.549 | 0.512 | 0.557 | 0.248 | 0.945 | 0.91 | 0.829 | 0.899 | 0.55 | 0.44 | 0.499 | 0.388 |
| SK-LU-1 | 1.26 | 1.27 | 0.999 | 1.01 | 0.341 | 0.371 | 0.343 | 0.352 | 0.511 | 0.541 | 0.442 | 0.616 | 1.11 | 0.937 | 0.928 | 0.877 | 0.317 | 0.338 | 0.351 | 0.3 |
| SK-MES-1 | 1.18 | 1.06 | 1.04 | 1.08 | 0.694 | 0.493 | 0.742 | 0.519 | 0.352 | 0.392 | 0.413 | 0.368 | 1.11 | 1.05 | 1.08 | 1.11 | 1.1 | 1.05 | 0.998 | 0.857 |
| SW 1573 | 0.968 | 0.772 | 0.887 | 0.626 | 0.564 | 0.518 | 0.443 | 0.258 | 0.616 | 0.604 | 0.558 | 0.532 | 0.906 | 0.867 | 0.889 | 0.741 | 0.194 | 0.24 | 0.188 | 0.0571 |
